Laboratory results from patent publication US20210277003A1, “OGA INHIBITOR COMPOUNDS” (Janssen Pharmaceutica NV, priority 2018, published 2021).

What was measured:
[1] = system: OGA in HEK293 cells inducible for P301L mutant human Tau (isoform 2N4R); assay: OGA cellular assay: immunocytochemical detection of O-GlcNAcylated proteins (CTD110.6 antibody); format: cell-based; details: Homo sapiens, HEK293, 6 h, 6 hours incubation; for Emax: maximum = Thiamet G 200 uM; for EC50: read-out: Cellular hOGA, pEC50 (converted)
Outline: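 Cells seeded 2 days ahead in low-glucose assay medium and exposed to compounds for 6 h at 0.2% DMSO, then PFA-fixed and immunostained. Signal is 488 nm intensity from imaging (9 fields/well), with Hoechst nuclei counts as a toxicity check. IC50 from non-linear regression, with 200 uM Thiamet G per plate as maximum inhibition.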

[2] = target: T1, recombinant human Meningioma Expressed Antigen 5 (MGEA5), also referred to as O-GlcNAcase (OGA) (Homo sapiens, UniProt O60502); assay: OGA biochemical assay: inhibition of hydrolysis of fluorescein mono-ß-D-N-Acetyl-Glucosamine (FM-GlcNAc), fluorescence readout; details: FM-GlcNAc substrate; for Emax: read-out: Enzymatic Emax (%); for IC50: read-out: Enzymatic hOGA, pIC50 (converted)
T1 construct: Full length OGA enzyme was purchased at OnGene (cat #TP322411); purchased OnGene (so in the source)
T1 sequence (O60502 1-916): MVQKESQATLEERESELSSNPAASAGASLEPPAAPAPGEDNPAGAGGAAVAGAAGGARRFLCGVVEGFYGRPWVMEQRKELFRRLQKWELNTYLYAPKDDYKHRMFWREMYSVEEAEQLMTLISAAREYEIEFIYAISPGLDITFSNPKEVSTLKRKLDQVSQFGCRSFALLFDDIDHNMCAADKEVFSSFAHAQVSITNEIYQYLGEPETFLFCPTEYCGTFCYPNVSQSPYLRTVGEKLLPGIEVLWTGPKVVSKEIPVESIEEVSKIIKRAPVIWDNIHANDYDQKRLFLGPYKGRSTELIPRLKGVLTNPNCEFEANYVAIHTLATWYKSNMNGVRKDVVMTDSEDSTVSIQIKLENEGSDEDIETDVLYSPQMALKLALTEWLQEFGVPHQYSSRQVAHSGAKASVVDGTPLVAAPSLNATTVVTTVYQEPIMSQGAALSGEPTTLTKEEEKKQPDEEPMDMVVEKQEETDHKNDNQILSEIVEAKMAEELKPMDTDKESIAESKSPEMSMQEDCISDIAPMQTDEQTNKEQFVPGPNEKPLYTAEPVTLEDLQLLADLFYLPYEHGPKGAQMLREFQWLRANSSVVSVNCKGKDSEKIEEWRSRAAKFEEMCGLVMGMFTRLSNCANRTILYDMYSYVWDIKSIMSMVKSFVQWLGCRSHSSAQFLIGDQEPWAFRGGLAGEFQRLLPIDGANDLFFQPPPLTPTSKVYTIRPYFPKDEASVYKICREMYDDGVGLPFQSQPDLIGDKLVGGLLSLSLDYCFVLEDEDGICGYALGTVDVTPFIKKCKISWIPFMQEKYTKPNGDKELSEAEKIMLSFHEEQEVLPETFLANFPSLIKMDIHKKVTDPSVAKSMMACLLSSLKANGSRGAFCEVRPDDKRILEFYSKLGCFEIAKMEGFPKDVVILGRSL
Outline: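 Full-length recombinant human OGA (2 nM) was pre-incubated with compound for 60 min, then reacted with 100 uM FM-GlcNAc for 6 h at room temperature in 200 mM citrate/phosphate pH 7.2 with 0.005% Tween-20. Reactions were stopped with pH 11.0 carbonate and fluorescein read at 485/538 nm. IC50 and Hill coefficient came from curve fitting.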

| Structure (SMILES) | Emax [1] | EC50 [1] | Emax [2] | IC50 [2] | Enzymatic hOGA; pIC50 [2] |
| --- | --- | --- | --- | --- | --- |
| Cc1cc2cnn(C)c2c(C)c1Nc1nccc2c1ccn2CC(F)(F)C(C)C [Compound 189] | 101% | 3.16 nM | 100% | 1.05 nM |  |
| CC[C@H](O)Cn1ccc2c(Nc3c(C)cc(C(F)(F)F)cc3C)nccc21 [Compound 124b] | 76.7% | 27.5 nM | 102% |  | 8.04 |
| Cc1ccnc(C)c1Nc1nccc2c1ccn2CC1CC(F)(F)C1 [Compound 92] | 75% | 151 nM | 103% |  | 7.38 |
| Clc1cccc(Cl)c1Nc1nccc2c1ccn2CC1CC1 [Compound 69] | 82% | 55 nM | 102% | 3.39 nM |  |
| CCC(F)(F)Cn1ccc2c(Nc3c(C)ccnc3C)nccc21 [Compound 27] | 112% | 7.59 nM | 104% | 2.24 nM |  |
| Cc1cc(OC(F)(F)F)cc(C)c1Nc1nccc2c1ccn2CC(F)(F)C(C)C [Compound 187] | 96.4% | 8.71 nM | 101% | 1.78 nM |  |
| Cc1ccnc(C(F)(F)F)c1Nc1nccc2c1ccn2CCC1CC1 [Compound 197] | 86.3% | 56.2 nM | 104% | 4.9 nM |  |
| Cc1cncc(Cl)c1Nc1nccc2c1ccn2CCC1CC1 [Compound 65] | 69% | 120 nM | 104% | 5.37 nM |  |
| Cc1ccnc(C)c1Nc1nccc2c1ccn2CCC(C)(F)F [Compound 90] | 62% | 363 nM | 102% |  | 7.31 |
| CCCCn1ccc2c(Nc3c(Cl)cnc4c3OCCO4)nccc21 [Compound 18] | 62% | 575 nM | 102% |  | 7.46 |
| CCCCn1ccc2c(Nc3c(C)ccnc3C)nccc21 [Compound 6] | 89% | 50.1 nM | 102% |  | 8.16 |
| CCC(F)Cn1ccc2c(Nc3c(C)ccnc3C)nccc21 (stereo not drawn) [Compound 78] | 96% | 7.94 nM | 103% | 3.24 nM |  |
| Cc1cc(OC(F)F)nc(C)c1Nc1nccc2c1ccn2CC(C)(F)F [Compound 149] | 96.4% | 10.7 nM | 101% |  | 8.58 |
| CC(C)=C(F)Cn1ccc2c(Nc3c(C)cc(-c4cnn(C)c4)cc3C)nccc21 [Compound 208] | 90.1% | 72.4 nM | 101% | 10.2 nM |  |
| Cc1ccnc(C)c1Nc1nccc2c1ccn2CC(F)(F)C(C)C [Compound 202] | 88.1% | 3.63 nM | 101% | 3.09 nM |  |
| CCCCn1ccc2c(Nc3c(C)cc(C(=O)N(C)C)cc3C)nccc21 [Compound 61] | 92% | 5.89 nM | 103% | 3.72 nM |  |
| CCCCn1ccc2c(Nc3c(Cl)cccc3Cl)ncc(F)c21 [Compound 74] | 40% | > 1000 nM | 100% | 28.8 nM |  |
| Cc1ccnc(C)c1Nc1nccc2c1ccn2CC1(F)CC1 [Compound 204] | 76.1% | 269 nM | 101% | 57.5 nM |  |
| CCCCn1ccc2c(Nc3c(C)cc(C(=O)N4CCOCC4)cc3C)nccc21 [Compound 56] | 107% | 5.13 nM | 101% | 2.69 nM |  |
| CCCCn1ccc2c(Nc3c(C)cncc3C(F)(F)F)nccc21 [Compound 86] | 71% | 309 nM | 101% | 21.9 nM |  |
| Cc1cncc(C(F)(F)F)c1Nc1nccc2c1ccn2CCC1CC1 [Compound 194] | 67.9% | 79.4 nM | 104% | 7.76 nM |  |

| Structure (SMILES) | Emax [1] | EC50 [1] | Emax [2] | IC50 [2] | Enzymatic hOGA; pIC50 [2] |
| --- | --- | --- | --- | --- | --- |
| CC[C@H](O)Cn1ccc2c(Nc3c(C)cc(F)cc3C)nccc21 [Compound 145b] | 85.7% | 26.9 nM | 102% |  | 8.46 |
| Cc1ccnc(C)c1Nc1nccc2c1ccn2CC1CCCO1 (stereo not drawn) [Compound 137] | 60.4% | 513 nM | 99.1% |  | 7.14 |
| Cc1cc(C(F)(F)F)cc(C(C)C)c1Nc1nccc2c1ccn2CC1CCO1 (stereo not drawn) [Compound 161] | 88.8% | 6.76 nM | 104% |  | 8.58 |
| Cc1ccnc(C)c1Nc1nccc2c1ccn2CC1CCO1 (stereo not drawn) [Compound 25] | 89% | 38 nM | 104% | 4.79 nM |  |
| Cc1cncc(C)c1Nc1nccc2c1ccn2CCC(C)C [Compound 48] | 86% | 30.9 nM | 102% | 10.7 nM |  |
| Cc1ccnc(C(C)C)c1Nc1nccc2c1ccn2CC(C)(F)F [Compound 147] | 90.9% | ~4.47 nM | 98.6% |  | 8.81 |
| Cn1cnc(-n2ccc3c(Nc4c(Cl)cccc4Cl)nccc32)c1 [Compound 167] | 81.9% | ~224 nM | 102% | 17 nM |  |
| CCCCn1ccc2c(Nc3c(C)cc4c(c3C)OCCO4)nccc21 [Compound 53] | 82% | 20.4 nM | 105% | 1.86 nM |  |
| Cc1cc(F)cc(Cl)c1Nc1nccc2c1ccn2CC(C)(F)F [Compound 151] | 102% | 10.2 nM | 100% |  | 8.61 |
| Cc1cc(C(F)(F)F)cc(C)c1Nc1nccc2c1ccn2CC(C)(F)F [Compound 130] | 93.7% | 3.16 nM | 102% |  | 8.6 |
| Cc1ccnc(OC(F)F)c1Nc1nccc2c1ccn2CC(C)(F)F [Compound 132] | 82.2% | 110 nM | 99.7% |  | 7.94 |
| Cc1cc(OC(F)F)cc(Cl)c1Nc1nccc2c1ccn2CC1CC(F)(F)C1 [Compound 116] | 61.8% | 55 nM | 104% |  | 7.98 |
| Cc1cc(Cl)cc(C(F)(F)F)c1Nc1nccc2c1ccn2CC(C)(F)F [Compound 129] | 104% | 7.41 nM | 100% |  | 8.59 |
| Cc1cc(F)cc(F)c1Nc1nccc2c1ccn2CC(C)(F)F [Compound 155] | 73.3% | 50.1 nM | 101% |  | 8 |
| CCCCn1ccc2c(Nc3c(C)cc(C(=O)N4CCCC4)cc3C)nccc21 [Compound 75] | 85% | 6.03 nM | 102% | 2.82 nM |  |
| Cc1cccc(S(C)(=O)=O)c1Nc1nccc2c1ccn2CCC1CC1 [Compound 195] | 95.3% | 25.1 nM | 102% | 1.35 nM |  |
| Cc1ccnc(C(C)C)c1Nc1nccc2c1ccn2CC(F)(F)C1CC1 [Compound 85] | 94% | 0.708 nM | 104% | 0.977 nM |  |
| CCCCn1ccc2c(Nc3c(C)ccc4[nH]nnc34)nccc21 [Compound 12] | 64% | 562 nM | 99% |  | 7.31 |
| CCCCn1ccc2c(Nc3c(F)cncc3C(C)C)nccc21 [Compound 46] | 67% | 251 nM | 99% | 17.8 nM |  |
| Cc1cncc(C(C)(C)O)c1Nc1nccc2c1ccn2CC1CCO1 (stereo not drawn) [Compound 125] | 74.8% | 43.7 nM | 103% |  | 7.91 |
| Cc1cc(C(F)(F)F)nc(C)c1Nc1nccc2c1ccn2CC(C)(F)F [Compound 131] | 78.7% | 15.5 nM | 102% |  | 8.36 |
